This passage reports GI50 and TGI results from PubChem BioAssay (NCI).

Values joined by “and” are separate entries in the source; they are usually repeats but may differ in a detail not shown here. Equal entries are not always repeated.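 Where inhibition never reached the appropriate level, the endpoint shown equals the highest concentration tested. Otherwise, values were interpolated linearly from a five-concentration, 48-hour dose response in 96-well plates. At the GI50, growth is halved. TGI is the concentration that stops growth completely.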 Some results are limits rather than exact numbers.

Test systems include COLO 205 colon; SK-OV-3 ovarian; SF-539 CNS; K-562 leukemia; OVCAR-4 ovarian; SF-295 CNS; KM12 colon; PC-3 prostate; A549 NSCLC; NCI-H23 lung.
Assay in all cases: growth of human tumour cells (NCI), 48 h

`COc1ccc(N(C)c2ncnc3occ(C)c23)cc1`: the GI50 was < 0.01 µM in the assay with COLO 205 colon; < 0.01 µM in the assay with SK-OV-3 ovarian; < 0.01 µM in the assay on SF-539 CNS; < 0.01 µM in the assay on K-562 leukemia; < 0.0311 µM with OVCAR-4 ovarian; < 0.01 µM in the assay with SF-295 CNS. In addition, the GI50 with KM12 colon, with PC-3 prostate, in the assay with A549 NSCLC and in the assay with NCI-H23 lung was < 0.01 µM throughout. For the same compound, the TGI in the assay with COLO 205 colon is < 0.0105 µM; in the assay on SK-OV-3 ovarian, > 100 µM; in the assay on SF-539 CNS it was < 0.01 µM; in the assay on OVCAR-4 ovarian it was > 100 µM; in the assay on SF-295 CNS it was > 100 µM; in the assay on PC-3 prostate it was > 51.8 µM. The TGI with A549 NSCLC and with NCI-H23 lung was > 100 µM each time.
Regarding `CCC[CH2][Sn]([CH2]CCC)([CH2]CCC)[O]C(=O)CC`, the GI50 in the assay with COLO 205 colon was 0.178 µM; in the assay on SK-OV-3 ovarian, 0.143 µM; in the assay with SF-539 CNS, 0.185 µM; in the assay with K-562 leukemia, 0.237 µM; in the assay on OVCAR-4 ovarian, 0.125 µM; in the assay with SF-295 CNS, 0.238 µM. The GI50 was 0.135 µM with KM12 colon, 0.189 µM with PC-3 prostate, 0.172 µM with A549 NSCLC and 0.149 µM in the assay with NCI-H23 lung. For the same compound, the TGI in the assay with COLO 205 colon amounted to 0.372 µM; in the assay on SK-OV-3 ovarian it was 0.296 µM; in the assay with SF-539 CNS, 0.38 µM; in the assay on OVCAR-4 ovarian, 0.26 µM; with SF-295 CNS it was 0.746 µM; in the assay with KM12 colon it was 0.27 µM. Moreover, the results for the TGI in the assay on PC-3 prostate, in the assay with A549 NSCLC and with NCI-H23 lung were 0.426 µM, 0.342 µM and 0.615 µM, respectively.
On to `O=S(=O)(Nc1cc(F)cc(Cl)c1)c1ccc(-c2cnc(C3CC3)o2)cc1`, for which the GI50 is 1.59 µM in the assay on COLO 205 colon; 4.84 µM with SK-OV-3 ovarian; 1.25 µM in the assay with SF-539 CNS; 0.422 µM in the assay with K-562 leukemia; 5.64 µM in the assay with OVCAR-4 ovarian; 0.389 µM in the assay with SF-295 CNS. For the same compound, the GI50 is 0.614 µM with KM12 colon, 1.25 µM in the assay with PC-3 prostate, 1.9 µM in the assay on A549 NSCLC and 2.62 µM in the assay on NCI-H23 lung. The TGI in the assay on COLO 205 colon was 11.8 µM; in the assay with SK-OV-3 ovarian, 25.9 µM; in the assay with SF-539 CNS it was 10.5 µM; with K-562 leukemia, > 100 µM; in the assay on OVCAR-4 ovarian it was 21.9 µM; in the assay with SF-295 CNS, 10.3 µM. Moreover, the TGI in the assay on KM12 colon stood at 16.7 µM; in the assay on PC-3 prostate, 14.3 µM; with A549 NSCLC, 19.7 µM; in the assay with NCI-H23 lung it was 18.3 µM.
For `O=C(OCc1ccc2cccc(O)c2n1)N1CCN(C(=O)c2cc3cc(F)ccc3[nH]2)CC1`, the GI50 in the assay with COLO 205 colon is 0.622 µM; with SK-OV-3 ovarian it was 2.77 µM; in the assay with SF-539 CNS, 1.15 µM; in the assay with K-562 leukemia, 0.435 µM; with OVCAR-4 ovarian, 1.35 µM; in the assay on SF-295 CNS, 5.69 µM. The GI50 in the assay with KM12 colon was 1.61 µM; in the assay with PC-3 prostate, 0.513 µM; in the assay on A549 NSCLC it was 1.62 µM; in the assay with NCI-H23 lung, 1.62 µM. Moreover, the TGI in the assay with COLO 205 colon was found to be 2.07 µM; in the assay on SK-OV-3 ovarian, 11.9 µM; with SF-539 CNS, 2.36 µM; with K-562 leukemia, 2.4 µM; with OVCAR-4 ovarian, 2.74 µM; with SF-295 CNS it was 18.6 µM. The TGI was 3.46 µM with KM12 colon, 2.02 µM with PC-3 prostate, 3.35 µM in the assay on A549 NSCLC and 3.45 µM in the assay on NCI-H23 lung.
`Oc1[nH]c2ccccc2c1N=Nc1ccccc1Cl`: the TGI was > 100 µM in the assay on COLO 205 colon; 64.5 µM with SK-OV-3 ovarian; > 100 µM in the assay with SF-539 CNS; > 100 µM in the assay on K-562 leukemia; 14.6 µM in the assay on OVCAR-4 ovarian; > 100 µM in the assay on SF-295 CNS. The TGI in the assay on KM12 colon, in the assay with PC-3 prostate, in the assay on A549 NSCLC and in the assay on NCI-H23 lung was > 100 µM throughout.
For `O=c1n(CC2CO2)c(=O)n(CC2CO2)c(=O)n1CC1CO1` (configuration not stated), the GI50 was 25 µM and 11.1 µM with COLO 205 colon; 6.86 µM with SK-OV-3 ovarian; 2.92 µM in the assay on SF-539 CNS; 40.3 µM and 26.5 µM in the assay on K-562 leukemia; 25.9 µM and 23 µM with OVCAR-4 ovarian; 4.18 µM in the assay with SF-295 CNS. The GI50 in the assay with KM12 colon is 21.3 µM; in the assay with PC-3 prostate it was 20.3 µM; in the assay with A549 NSCLC, 2.04 µM; in the assay with NCI-H23 lung, 14.2 µM and 7.3 µM. For the same compound, the TGI in the assay with COLO 205 colon was 78.4 µM and 52.2 µM and 25.5 µM; in the assay on SK-OV-3 ovarian it was 123 µM and > 100 µM; in the assay on SF-539 CNS, 41.6 µM and 24.7 µM; in the assay on K-562 leukemia, 308 µM and > 100 µM; with OVCAR-4 ovarian, 112 µM and > 100 µM; in the assay with SF-295 CNS it was 34.1 µM and 126 µM and > 100 µM. In addition, the TGI in the assay on KM12 colon is 112 µM and > 100 µM; in the assay on PC-3 prostate, 75.4 µM and 92.2 µM and > 100 µM; with A549 NSCLC, 134 µM and > 100 µM; with NCI-H23 lung it was 90.9 µM and > 100 µM.
`CC(=O)OC1Oc2ccccc2-c2oc(=O)c(-c3cc(=O)oc4cc(O)ccc34)cc21` (configuration not stated): the GI50 with COLO 205 colon was 18.2 µM; in the assay on SK-OV-3 ovarian it was 26.7 µM; in the assay with SF-539 CNS, 17.4 µM; in the assay on K-562 leukemia, 9.45 µM; with OVCAR-4 ovarian, 25 µM; with SF-295 CNS, 8.74 µM. For the same compound, the GI50 in the assay with KM12 colon was 19.8 µM; with PC-3 prostate it was 16.2 µM; in the assay on A549 NSCLC, 24 µM; with NCI-H23 lung, 5.53 µM. The TGI with COLO 205 colon is 51.2 µM; in the assay on SK-OV-3 ovarian, 87.6 µM; in the assay on SF-539 CNS it was 38.2 µM; in the assay with K-562 leukemia, > 100 µM; in the assay on OVCAR-4 ovarian, > 100 µM; in the assay on SF-295 CNS, 25.2 µM. In addition, the TGI is 46.4 µM with KM12 colon, 55.6 µM in the assay with PC-3 prostate, > 100 µM in the assay with A549 NSCLC and 25.6 µM with NCI-H23 lung.
`CC(SC(C)C(=O)N/N=C/c1cccc(Cl)c1)C(=O)N/N=C\c1cccc(Cl)c1` (configuration not stated): the GI50 in the assay on COLO 205 colon was 11.6 µM; in the assay with SK-OV-3 ovarian, 13 µM; in the assay on SF-539 CNS, 16.3 µM; in the assay on K-562 leukemia, 31.6 µM; in the assay on OVCAR-4 ovarian it was 1.63 µM; with SF-295 CNS, 14.1 µM. The GI50 in the assay with KM12 colon was 11.4 µM; with PC-3 prostate it was 4.36 µM; in the assay on A549 NSCLC it was 3.3 µM; with NCI-H23 lung, 14 µM. The TGI was 38.9 µM in the assay on COLO 205 colon; 31.2 µM with SK-OV-3 ovarian; 44.2 µM in the assay on SF-539 CNS; > 100 µM with K-562 leukemia; 3.35 µM in the assay on OVCAR-4 ovarian; 35 µM with SF-295 CNS. In addition, the TGI in the assay with KM12 colon was 30.3 µM; in the assay with PC-3 prostate it was 25.8 µM; with A549 NSCLC, 12.3 µM; in the assay with NCI-H23 lung, 32.6 µM.
